Laboratory results published in EP1157694A1, “REMEDIAL AGENT FOR ERECTILE DYSFUNCTION” (Nissan Chemical Industries, Ltd., priority 1998, dated 2000).
Structures can show the parent of a compound that is named as a salt.

Tests used:
[1] = system: isolated corpus cavernosum of rabbit; assay: Relaxation on norepinephrine-induced contraction in isolated corpus cavernosum of rabbit; settings: for attenuation of action by pre-treatment with L-NAME: L-NAME (1 mmol/L); for IC50: Oryctolagus cuniculus
Text: (§1) Rabbits were sacrificed by venesection following severing of the carotid artery under sodium pentobarbital anesthesia. The penis was immediately isolated and transferred into Krebs-Henseleit solution (composition (mmol/L): NaCl 118.4, KCl 4.7, CaCl2 2.5, MgSO4 1.2, KH2PO4 1.2, NaHCO3 25.0, glucose 11.1), which was adequately aerated with a 95% O2/5% CO2. After cutting away the connective tissue, the penis was severed longitudinally into two sections so that half of the urethra was present in each section by using an extension of the midline as the boundary. Each preparation was suspended from an FD pickup (TB-611T, Nihon Koden) at a resting tension of 0.5 g (about 5 mN) for the load in a nutrient solution consisting of 20 ml of organ bath maintained at 37°C. Contraction was recorded as the isometric contraction on a thermal pen writing recorder (WT-685G, Nihon Koden) following amplification by a carrier amplifier (AP-621G, Nihon Koden). After replacing the nutrient solution twice every 20 minutes and allowing to equilibrate, reactivity was confirmed for each preparation by observing the contraction to 1 µmol/L of norepinephrine. After contraction stabilized, the preparation was washed by replacing the nutrient solution, after which the solution was additionally replaced twice every 20 minutes and acceptable to equilibrate.
To begin with, each preparation was contracted by norepinephrine (final concentration: 1 µmol/L). The preparation for which stable tension was obtained at this time was used in the experiment. Each drug was administered cumulatively in 10-fold ratios followed by observation of the reaction. The maximum relaxation reaction was determined by application of papaverine hydrochloride (final concentration: 100 µmol/L).
The inhibition rate at each concentration was calculated by taking the tension during addition of norepinephrine to represent an inhibition rate of 0%, and the tension during the maximum relaxation reaction induced by addition of papaverine hydrochloride to represent an inhibition rate of 100%, followed by calculation of the concentration value at which the inhibition rate was 50% (IC50).

[2] = system: papillary muscle preparation from the right ventricle; assay: Action on isolated cardiac muscle of guinea-pig: force of contraction of papillary muscle preparation; settings: 30% of isoproterenol maximum reaction
Procedure: After sacrificing male Hartley guinea-pigs by venesection, the heart was isolated and transferred to Krebs-Henseleit solution was adequately aerated with a 95% O2/5% CO2. After promptly separating the heart into the atria and ventricles, a papillary muscle preparation from the right ventricle and a right atrium preparation were prepared. Each preparation was suspended from an FD pickup (TB-611T, Nihon Koden) at a resting tension of 0.5 g (about 5 mN) for the load in a nutrient solution consisting of organ bath maintained at 31°C. Automatic contraction of the right atrium amplified by a carrier amplifier (AP-600G, Nihon Koden) followed by recording tension and the number of beats on a recorded by means of an instantaneous heart rate counter (AT600G, Nihon Koden). […] Drug action was evaluated by determining the rate of change caused by the drug by taking the difference between the maximum reaction induced by the second administration of isoproterenol and that before drug administration to be 100%, and then calculating the EC30 value as the concentration at which drug action was 30% with respect to force of contraction based on this rate of change.

[3] = system: isolated thoracic aorta of rabbit; assay: Relaxation on norepinephrine-induced contraction in isolated thoracic aorta of rabbit; settings: for IC50: Oryctolagus cuniculus
Text: as §1, with “equilibrate. To begin with, each preparation was contracted by norepinephrine (final concentration: 1 µmol/L). The preparation for which stable tension was obtained at this time was used in the experiment. Each drug was administered cumulatively in 10-fold ratios followed by observation of the reaction. The maximum relaxation reaction was determined by application of papaverine hydrochloride (final concentration: 100 µmol/L). The inhibition rate at each concentration was calculated by taking the tension during addition of norepinephrine to represent an inhibition rate of 0%, and the tension during the maximum relaxation reaction induced by addition of papaverine hydrochloride to represent an inhibition rate of 100%, followed by calculation of the concentration value at which the inhibition rate was 50% (IC50). The procedure was performed in the same manner as Experimental Example 2 with the exception of isolating the thoracic aorta and preparing in the form of a […] strip, and using 1 g (about 10 mN) of resting tension for the load.” for “equilibrate.”

right atrium preparation = assay: Action on isolated cardiac muscle of guinea-pig: number of beats of right atrium preparation; settings: for action on the heart relative to the action on the corpus cavernosum: EC30 heart compared with IC50 corpus cavernosum of Experimental example 2; for EC30 Heart rate: number of beats, 30% of isoproterenol maximum reaction
Procedure: After sacrificing male Hartley guinea-pigs by venesection, the heart was isolated and transferred to Krebs-Henseleit solution was adequately aerated with a 95% O2/5% CO2. After promptly separating the heart into the atria and ventricles, a papillary muscle preparation from the right ventricle and a right atrium preparation were prepared. Each preparation was suspended from an FD pickup (TB-611T, Nihon Koden) at a resting tension of 0.5 g (about 5 mN) for the load in a nutrient solution consisting of organ bath maintained at 31°C. Automatic contraction of the right atrium amplified by a carrier amplifier (AP-600G, Nihon Koden) followed by recording tension and the number of beats on a recorded by means of an instantaneous heart rate counter (AT600G, Nihon Koden). For the papillary muscle, a rectangular wave electrical stimulus was applied by an electrical stimulator (SEN-3201, Nihon Koden) through bipolar platinum electrodes followed by amplification of the resulting tension by a carrier amplifier (AP-600G, Nihon Koden) and recording on a recorder. The right atrium preparations were equilibrated by replacing the nutrient solution twice every 20 minutes followed by confirmation of the reactivity of each preparation by observing the number of beats in the presence of 0.1 µmol/L of isoproterenol. After the number of beats had stabilized, the preparations were washed by replacing the nutrient solution and additionally equilibrated by replacing the nutrient solution twice every 20 minutes. Each drug was administered cumulatively followed by observing the reaction. Drug action was evaluated by determining the rate of change caused by the drug by taking the difference between the maximum reaction induced by isoproterenol and that before drug administration to be 100%, and then calculating the EC30 value as the concentration at which drug action was 30% with respect to the number of beats based on this rate of change.

[4] = Activity on intracavernous pressure by intracavernous injection to anesthetized dogs; assay type: in vivo
Procedure: Male beagle dogs having body weights of about 10 kg were anesthetized by intravenous administration of sodium pentobarbital at 35 mg/kg followed by immobilizing the animals in the dorsal position on a heating mat (SMS-2000J, Medical System Inc.) and inserting a. cannula into the trachea. A 23G winged needle for measuring internal pressure was inserted into the right corpus cavernosum, and intracavernous pressure was measured with a blood pressure measurement amplifier (AP-641G, Nihon Koden) by means of a pressure transducer (Statham P-50, Gould Co.). Moreover, a 23G winged needle for administration of drug was inserted into the right corpus cavernosum of the base followed by intracavernous injection of sodium nitroprusside (SNP, 10^-4 or 10^-3 mol/L, 0.5 ml) followed by administration of drug at the stage an increase in intracavernous pressure was confirmed. It should be noted that Compound A and milrinone were prepared with dimethyl sulfoxide-ethanol-physiological saline (1:2:30). […]
The activity of Compound A was assessed directly by administering at a volume of 0.5 ml starting from the lowest dose level at 0.243, 0.729, 2.43, 7.29, 24.3 and 72.9 µg/body (10^-6, 3 × 10^-6, 10^-5, 3 × 10^-5, 10^-4 and 3 × 10^-4 mol/L).
The effect of milrinone and zaprinast was assessed by concomitant administration of milrinone at 106 µg/body (10^-3 mol/L) and zaprinast at 136 µg/body (10^-3 mol/L) using a dosing volume of 0.5 ml each.
Intracavernous pressure was input into a polygraph (RM-6000, Nihon Koden), and together with continuously recording on a thermal pen recorder, was recorded and sampled on an external storage device (hard disk) of a computer (Macintosh Performa 5260, Apple) by means of a circulation kinetics analysis system (MP100WS, BIOPAC System) using circulation kinetics analysis software (MP/VAS 3 Ver. 1.0 beta 4.2, Physio-Tech Co., Ltd.). Maximum rate of change, duration and area under the curve (AUC) of intracavernous pressure were calculated using the circulation kinetics analysis software based on the resulting data. […]

[5] = direct relaxation, norepinephrine 1 µmol/L contraction
[6] = pre-treatment with L-NAME (1 mmol/L)
[7] = intracavernous injection, Dunnett's test vs solvent group

Cl.O=c1[nH]nc(OCCCc2ccc(Cl)cc2)c(NCc2cccnc2)c1Br [Compound A, 4-bromo-6-[3-(4-chlorophenyl)propoxy]-5-(3-pyridylmethylamino)-3(2H)-pyridazinone hydrochloride]
attenuation of action by pre-treatment with L-NAME [1]: about one-half
IC50 [1, 5]: 330 nM
IC50 [1, 6]: 770 nM
IC50 ([1]; pre-treatment with SNP (1 nmol/L)): 150 nM
enhancement of action by pre-treatment with SNP ([1]; SNP (1 nmol/L)): about two-fold
EC30 Papillary muscle contraction force ([2]; hydrochloride): >30000 nM
action on the cavernous body relative to that on the aorta ([3]; IC50 aorta compared with IC50 corpus cavernosum): about 8 times
IC50 ([3]; aorta, pre-treatment with SNP (1 nmol/L)): 2710 nM
IC50 ([3]; direct relaxation, norepinephrine 1 µmol/L contraction, aorta): 2650 nM
relaxation action ([3]; aorta, cumulative administration): dose-dependent relaxation action
effect of pre-treatment with SNP on action ([3]; aorta, SNP (1 nmol/L)): completely unaffected
action on the heart relative to the action on the corpus cavernosum (right atrium preparation): less than 1/90
EC30 Heart rate (right atrium preparation; hydrochloride): >30000 nM
intracavernous pressure ([4]; intracavernous injection 0.243 to 72.9 µg/body (10^-6 to 3 × 10^-4 mol/L), after SNP): increased intracavernous pressure, nearly dose-dependently
dose with significant effects on duration of intracavernous pressure [4, 7]: ≥ 2.43 µg/body
dose with significant effects on maximum rate of change of intracavernous pressure [4, 7]: ≥ 2.43 µg/body

O=c1[nH]nc(OCCC(O)c2ccc(Cl)cc2)c(NCc2cccnc2)c1Br (stereo not drawn) [Compound B, 4-bromo-6-[3-(4-chlorophenyl)-3-hydroxypropoxy]-5-(3-pyridylmethylamino)-3(2H)-pyridazinone hydrochloride]
IC50 [1, 5]: 1590 nM

Cc1[nH]c(=O)c(C#N)cc1-c1ccncc1 [Milrinone, milrinone, reference compound]
IC50 [1, 5]: 5800 nM
EC30 Papillary muscle contraction force [2]: 33900 nM
action on the heart relative to the action on the corpus cavernosum (right atrium preparation): about 1/2
EC30 Heart rate (right atrium preparation): 11700 nM

CCCOc1ccccc1-c1nc2nn[nH]c2c(=O)[nH]1 [Zaprinast, zaprinast, reference compound]
attenuation of action by pre-treatment with L-NAME [1]: 1/18
IC50 [1, 5]: 5500 nM
IC50 [1, 6]: > 100000 nM
